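Method: 48-hour compound exposure of cells in 96-well plates, five concentrations, linear interpolation of endpoints. GI50 = concentration required for 50% inhibition of growth.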 Calls of active or inactive are those of the source. Cut-off read from the data, not from the text of the source: active = GI50 up to about 1.1 µM and inactive = higher.
Key:
Assay in all cases: DTP human tumour cell line panel, 48 h
786-0 = tested on: 786-0
A498 = tested on: A498
A549 = tested on: A549
ACHN = tested on: ACHN
BT-549 = tested on: BT-549
CAKI-1 = tested on: CAKI-1
CCRF-CEM = tested on: CCRF-CEM
COLO 205 = tested on: COLO 205
DU-145 = tested on: DU-145
EKVX = tested on: EKVX
HCC 2998 = tested on: HCC 2998
HCT-116 = tested on: HCT-116
HCT-15 = tested on: HCT-15
HL-60 = tested on: HL-60
HOP-62 = tested on: HOP-62
HOP-92 = tested on: HOP-92
HT-29 = tested on: HT-29
Hs-578T = tested on: Hs-578T
IGROV-1 = tested on: IGROV-1
K562 = tested on: K562
KM12 = tested on: KM12
LOX IMVI = tested on: LOX IMVI
M14 = tested on: M14
MCF7 = tested on: MCF7
MDA-MB-231 = tested on: MDA-MB-231
MDA-MB-435 = tested on: MDA-MB-435
MDA-N = tested on: MDA-N
MOLT-4 = tested on: MOLT-4
Malme-3M = tested on: Malme-3M
NCI-H226 = tested on: NCI-H226
NCI-H23 = tested on: NCI-H23
NCI-H460 = tested on: NCI-H460
NCI-H522 = tested on: NCI-H522
NCI/ADR-RES = tested on: NCI/ADR-RES
OVCAR-3 = tested on: OVCAR-3
OVCAR-4 = tested on: OVCAR-4
OVCAR-5 = tested on: OVCAR-5
OVCAR-8 = tested on: OVCAR-8
PC-3 = tested on: PC-3
RPMI-8226 = tested on: RPMI-8226
RXF 393 = tested on: RXF 393
SF-268 = tested on: SF-268
SF-295 = tested on: SF-295
SF-539 = tested on: SF-539
SK-MEL-28 = tested on: SK-MEL-28
SK-MEL-2 = tested on: SK-MEL-2
SK-MEL-5 = tested on: SK-MEL-5
SK-OV-3 = tested on: SK-OV-3
SN12C = tested on: SN12C
SNB-19 = tested on: SNB-19
SNB-75 = tested on: SNB-75
SW-620 = tested on: SW-620
T47D = tested on: T47D
TK-10 = tested on: TK-10
U-251 = tested on: U-251
UACC-257 = tested on: UACC-257
UACC-62 = tested on: UACC-62
UO-31 = tested on: UO-31

SMILES: O=C1c2ccccc2S(=O)(=O)c2ccccc21
- GI50 (786-0): > 100 µM (inactive)
- GI50 (A498): > 100 µM (inactive)
- GI50 (A549): > 100 µM (inactive)
- GI50 (ACHN): > 100 µM (inactive)
- GI50 (BT-549): > 100 µM (inactive)
- GI50 (CAKI-1): > 100 µM (inactive)
- GI50 (CCRF-CEM): > 100 µM (inactive)
- GI50 (COLO 205): > 100 µM (inactive)
- GI50 (DU-145): > 100 µM (inactive)
- GI50 (EKVX): 61.1 µM (inactive)
- GI50 (HCC 2998): > 100 µM (inactive)
- GI50 (HCT-116): > 100 µM (inactive)
- GI50 (HCT-15): > 100 µM
- GI50 (HL-60): > 100 µM (inactive)
- GI50 (HOP-62): > 100 µM (inactive)
- GI50 (HOP-92): > 100 µM (inactive)
- GI50 (HT-29): > 100 µM (inactive)
- GI50 (Hs-578T): 72.1 µM (inactive)
- GI50 (IGROV-1): > 100 µM (inactive)
- GI50 (K562): > 100 µM (inactive)
- GI50 (KM12): > 100 µM (inactive)
- GI50 (LOX IMVI): > 100 µM (inactive)
- GI50 (M14): > 100 µM (inactive)
- GI50 (MCF7): > 100 µM (inactive)
- GI50 (MDA-MB-231): > 100 µM (inactive)
- GI50 (MDA-MB-435): > 100 µM (inactive)
- GI50 (MDA-N): > 100 µM (inactive)
- GI50 (MOLT-4): > 100 µM (inactive)
- GI50 (Malme-3M): > 100 µM (inactive)
- GI50 (NCI-H226): > 100 µM (inactive)
- GI50 (NCI-H23): > 100 µM (inactive)
- GI50 (NCI-H460): > 100 µM (inactive)
- GI50 (NCI-H522): > 100 µM (inactive)
- GI50 (NCI/ADR-RES): > 100 µM (inactive)
- GI50 (OVCAR-3): > 100 µM (inactive)
- GI50 (OVCAR-4): > 100 µM (inactive)
- GI50 (OVCAR-5): > 100 µM (inactive)
- GI50 (OVCAR-8): > 100 µM (inactive)
- GI50 (PC-3): > 100 µM (inactive)
- GI50 (RPMI-8226): > 100 µM (inactive)
- GI50 (RXF 393): > 100 µM (inactive)
- GI50 (SF-268): > 100 µM (inactive)
- GI50 (SF-295): > 100 µM (inactive)
- GI50 (SF-539): > 100 µM (inactive)
- GI50 (SK-MEL-28): > 100 µM (inactive)
- GI50 (SK-MEL-2): > 100 µM (inactive)
- GI50 (SK-MEL-5): > 100 µM (inactive)
- GI50 (SK-OV-3): > 100 µM (inactive)
- GI50 (SN12C): > 100 µM (inactive)
- GI50 (SNB-19): > 100 µM (inactive)
- GI50 (SNB-75): > 100 µM (inactive)
- GI50 (SW-620): > 100 µM (inactive)
- GI50 (T47D): > 100 µM (inactive)
- GI50 (TK-10): > 100 µM (inactive)
- GI50 (U-251): > 100 µM (inactive)
- GI50 (UACC-257): > 100 µM (inactive)
- GI50 (UACC-62): > 100 µM (inactive)
- GI50 (UO-31): > 100 µM (inactive)

— ChEMBL document CHEMBL1201862, “PubChem BioAssay data set” (2004)
